{"source": "patent US20240226211A9", "about": "“SEAWEED EXTRACTS, ISOLATED COMPOUNDS, AND METHODS OF TREATMENT” (University of Florida Research Foundation, Incorporated, priority 2017, published 2024)", "key": {"[1]": {"tested_on": "ARE-luciferase reporter (human NQO1-ARE) in LNCaP cells", "assay": "ARE-luc reporter assay in LNCaP cells", "format": "cell-based", "settings": "LNCaP cell line", "from_the_text": "The ARE-luciferase reporter construct (ARE-luc) contains the core sequence of human NQO1-ARE1. The mock plasmid (pcDNA3-mRFP) was purchased from Addgene (plasmid 13032). The following plasmids were reported by Zhang et a/.2003 [Zhang, D. D., and Hannink, M. (2003) Distinct cysteine residues in Keap1 are required for Keap1-dependent ubiquitination of Nrf2 and for stabilization of Nrf2 by chemopreventive agents and oxidative stress. Mol. Cell. Biol. 23, 8137-8151]. The Keap1-CBD plasmid carries the entire open reading frame (ORF) of human Keap1 fused to the chitin binding domain (CBD) of the Bacillus circulans chitinase A1 gene upstream of the Keap1 stop codon. […]\nAn ARE-luciferase reporter plasmid and CMV-GFP plasmid (to monitor transfection efficiency) were co-transfected into a human androgen-sensitive prostate cancer cell line, LNCaP (6×10^4 cells/well), and a human neuroblastoma cell line, IMR-32 (3×10^4 cells/well), using Fugene® HD (Roche Diagnostics) in 96-well format. […] After 24 hours of incubation, cells were treated with extracts from Cymopolia barbata, a negative control (DMSO, 1%, v/v), and a positive control ([…] sulforaphane, SF, and tert-butylhydroquinone, tBHQ, respectively.) 24 hours post-treatment, luciferase activity was detected using BriteLite detection reagent (PerkinElmer). […]"}, "Nrf2": {"tested_on": "Nrf2", "assay": "RNA interference of Nrf2 in IMR-32 cells, NQO1 induction", "format": "cell-based, human", "settings": "IMR-32, 48 h RNAi then 24 h treatment"}, "iNOS": {"tested_on": "iNOS", "assay": "iNOS transcript levels in RAW264.7 macrophage cells", "format": "cell-based, mouse", "settings": "10 μM Compound 1, IFN-γ", "method": "The RNeasy Mini Kit (Qiagen) was used to collect total RNA from cells, while for mouse tissue, TRIzol reagent (Invitrogen) was used. In each case, total RNAs (2 μg) were reverse-transcribed into cDNAs, which were used as templates for TaqMan gene expression assay (Applied Biosystems) and detected using the 7300 Real-Time PCR System (Applied Biosystems). Each qPCR sample was tested in triplicate as a 25 μL total reaction volume (12.5 μL of Taqman 2× universal master mix, 1.25 μL of a 20× TaqMan gene expression assay probe, 1 μL of the above cDNA, and 10.25 μL of RNase-free sterile water). The qPCR method was designed as following: 50° C. for 2 min, 95° C. for 10 min, and 40 cycles of 95° C. for 15 s and 60° C. for 1 min. Endogenous controls used included GAPDH for IMR-32 cells and β-actin to normalize for RAW264.7 cells and mouse tissues.\nRAW264.7 cells were seeded in 6-well plates (8×10^5 cells/well) and incubated at 37° C. overnight."}, "Bacillus cereus": {"tested_on": "Bacillus cereus", "assay": "Preliminary antibacterial testing", "format": "cell-based"}}, "data": [{"smiles": "CC(C)=CCC/C(C)=C/Cc1cc(O)c(Br)cc1O", "note": "[Compound 1, (E)-2-bromo-5-(3,7-dimethylocta-2,6-dien-1-yl)benzene-1,4-diol]", "values": [{"measurement": "activation of ARE-luc", "setting": "[1]", "value": "most active"}, {"measurement": "induction of NQO1 transcript levels in siNrf2 transfected cells", "setting": "Nrf2", "value": "inhibited in siNrf2 transfected cells"}, {"measurement": "lowering of induced iNOS transcript levels", "setting": "iNOS", "value": "> 96", "unit": "%"}, {"measurement": "antibacterial activity", "setting": "Bacillus cereus", "value": "inhibited"}]}]}
